Results: PubChem BioAssay (NCI)
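Cultured in 96-well plates, cells were exposed to test compound for 48 hours across five concentrations. GI50: concentration for 50% inhibition of growth. At the TGI there is no net growth.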

Tests used:
Experiment in all cases: inhibition of tumour cell growth, NCI panel, 48 h
[1] = test system: SF-539 CNS
[2] = test system: T-47D breast
[3] = test system: BT-549 breast
[4] = test system: IGROV1 ovarian
[5] = test system: HCT-15 colon
[6] = test system: NCI-H226 lung
[7] = test system: TK-10 renal
[8] = test system: SK-MEL-5 melanoma
[9] = test system: UACC-257 melanoma
[10] = test system: HS 578T breast
[11] = test system: OVCAR-4 ovarian
[12] = test system: HOP-92 NSCLC
[13] = test system: LOX IMVI melanoma
[14] = test system: MDA-MB-231 breast
[15] = test system: RPMI-8226 leukemia
[16] = test system: HT29 colon
[17] = test system: MDA-MB-468 breast
[18] = test system: SF-295 CNS
[19] = test system: A549 NSCLC
[20] = test system: NCI/ADR-RES ovarian
[21] = test system: 786-0 renal
[22] = test system: SW-620 colon
[23] = test system: SK-OV-3 ovarian
[24] = test system: HCC-2998 colon
[25] = test system: M14 melanoma
[26] = test system: HOP-62 NSCLC
[27] = test system: OVCAR-5 ovarian
[28] = test system: MCF7 breast
[29] = test system: COLO 205 colon
[30] = test system: PC-3 prostate
[31] = test system: UO-31 renal
[32] = test system: EKVX NSCLC
[33] = test system: SK-MEL-2 melanoma
[34] = test system: MALME-3M melanoma
[35] = test system: K-562 leukemia
[36] = test system: SF-268 CNS
[37] = test system: NCI-H23 lung
[38] = test system: OVCAR-8 ovarian
[39] = test system: HL-60(TB) leukemia
[40] = test system: NCI-H460 lung
[41] = test system: ACHN renal
[42] = test system: RXF 393 renal
[43] = test system: KM12 colon
[44] = test system: SN12C renal
[45] = test system: CAKI-1 renal
[46] = test system: U251 CNS
[47] = test system: SNB-19 CNS
[48] = test system: MOLT-4 leukemia
[49] = test system: OVCAR-3 ovarian
[50] = test system: MDA-MB-435
[51] = test system: CCRF-CEM leukemia
[52] = test system: SR leukemia
[53] = test system: SNB-75 CNS
[54] = test system: SK-MEL-28 melanoma
[55] = test system: DU-145 prostate
[56] = test system: NCI-H522 lung
[57] = test system: A498 renal
[58] = test system: UACC-62 melanoma

## CN1CCN(c2ccc(C(=O)/C=C/c3cc(C(F)(F)F)ccc3Cl)cc2)CC1
[1]
  GI50: 1.92 µM
  TGI: 4.38 µM
[2]
  GI50: 12.3 µM
  TGI: 39.8 µM
[3]
  GI50: 5.42 µM
  TGI: 20.4 µM
[4]
  GI50: 3.33 µM
  TGI: 13 µM
[5]
  GI50: 1.87 µM
  TGI: 3.78 µM
[6]
  GI50: 4.55 µM
  TGI: 18.6 µM
[7]
  GI50: 13.5 µM
  TGI: 29 µM
[8]
  GI50: 3.71 µM
  TGI: 15 µM
[9]
  GI50: 10.4 µM
  TGI: 23.7 µM
[10]
  GI50: 5.48 µM
  TGI: 28.7 µM
[11]
  GI50: 10.7 µM
  TGI: 29 µM
[12]
  GI50: 3.79 µM
  TGI: 18.1 µM
[13]
  GI50: 1.63 µM
  TGI: 2.99 µM
[14]
  GI50: 2.81 µM
  TGI: 8.01 µM
[15]
  GI50: 1.77 µM
  TGI: 4.68 µM
[16]
  GI50: 2.01 µM
  TGI: 5.02 µM
[17]
  GI50: 1.59 µM
  TGI: 3.48 µM
[18]
  GI50: 6.89 µM
  TGI: 19.8 µM
[19]
  GI50: 3.65 µM
  TGI: 14.8 µM
[20]
  GI50: 3.5 µM
  TGI: 12.8 µM
[21]
  GI50: 2.22 µM
  TGI: 5.74 µM
[22]
  GI50: 2.08 µM
  TGI: 4.02 µM
[23]
  GI50: 5.66 µM
  TGI: 18.8 µM
[24]
  GI50: 1.81 µM
  TGI: 3.2 µM
[25]
  GI50: 3.13 µM
  TGI: 10.9 µM
[26]
  GI50: 13.9 µM
  TGI: 29.7 µM
[27]
  GI50: 13.9 µM
  TGI: 26.9 µM
[28]
  GI50: 1.42 µM
  TGI: 2.94 µM
[29]
  GI50: 3.48 µM
  TGI: 10.7 µM
[30]
  GI50: 3.06 µM
  TGI: 13.2 µM
[31]
  GI50: 4.09 µM
  TGI: 16.4 µM
[32]
  GI50: 5.94 µM
  TGI: 19 µM
[33]
  GI50: 17 µM
  TGI: 32 µM
[34]
  GI50: 11.2 µM
  TGI: 23.4 µM
[35]
  GI50: 2.17 µM
  TGI: > 100 µM
[36]
  GI50: 14.1 µM
  TGI: 37.7 µM
[37]
  GI50: 3.89 µM
  TGI: 14.2 µM
[38]
  GI50: 9.04 µM
  TGI: 26.2 µM
[39]
  GI50: 2.14 µM
  TGI: 7.53 µM
[40]
  GI50: 8.73 µM
  TGI: 22.3 µM
[41]
  GI50: 4.92 µM
  TGI: 16.8 µM
[42]
  GI50: 2.16 µM
  TGI: 11.1 µM
[43]
  GI50: 3.1 µM
  TGI: 9.83 µM
[44]
  GI50: 4.32 µM
  TGI: 16.4 µM
[45]
  GI50: 8.23 µM
  TGI: 21.2 µM
[46]
  GI50: 2.1 µM
  TGI: 4.85 µM
[47]
  GI50: 8.95 µM
  TGI: 21 µM
[48]
  GI50: 4.94 µM
  TGI: 93.6 µM
[49]
  GI50: 4.08 µM
  TGI: 14.4 µM
[50]
  GI50: 2.14 µM
  TGI: 5.06 µM
[51]
  GI50: 2.17 µM
  TGI: 5.93 µM
[52]
  GI50: > 100 µM
  TGI: > 100 µM
[53]
  GI50: 2.66 µM
  TGI: 15.6 µM
[54]
  GI50: 10.5 µM
  TGI: 22.3 µM
[55]
  GI50: 5.5 µM
  TGI: 20.5 µM
[56]
  GI50: 12.3 µM
  TGI: 27.9 µM
[57]
  GI50: 17.4 µM
  TGI: 32 µM
[58]
  GI50: 10.9 µM
  TGI: 22.8 µM
